The results in this text go back to PubChem BioAssay (NCI).

Among the test systems are NCI/ADR-RES ovarian; SK-OV-3 ovarian; 786-0 renal; U251 CNS; SF-539 CNS; HCC-2998 colon; UO-31 renal; MCF7 breast; SK-MEL-2 melanoma; CAKI-1 renal.
Experiment in all cases: DTP human tumour cell line panel, 48 h

Values joined by “and” are separate entries in the source; they are usually repeats but may differ in a detail not shown here. Equal entries are not always repeated.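 Tested at 5 concentrations; 48 h exposure; 96-well plates; endpoints linearly interpolated, else capped at highest concentration. GI50 = concentration required for 50% inhibition of growth. The concentration for full growth arrest is given as TGI.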

Take `CC1=Nn2c(nc3sc4c(c3c2=O)CCCC4)SC1`: the TGI in the test on NCI/ADR-RES ovarian, in the test with SK-OV-3 ovarian, with 786-0 renal, in the test with U251 CNS, in the test on SF-539 CNS and with HCC-2998 colon was greater than 100 µM throughout. Besides, the TGI with UO-31 renal, with MCF7 breast, in the test with SK-MEL-2 melanoma and in the test on CAKI-1 renal was greater than 100 µM in each case.
As to `CC1=C(C#N)S(=O)(=O)c2c(oc(C)c2C)N1`, the TGI in the test with NCI/ADR-RES ovarian, with SK-OV-3 ovarian, in the test with 786-0 renal, in the test with U251 CNS, in the test with SF-539 CNS and in the test with HCC-2998 colon was greater than 100 µM each time. In addition, the TGI with UO-31 renal, in the test on MCF7 breast, in the test with SK-MEL-2 melanoma and with CAKI-1 renal was greater than 100 µM each time.
For the compound `Clc1ccc(-c2nc(-c3ccc(Cl)cc3)[s+]s2)cc1`, the TGI in the test with NCI/ADR-RES ovarian, in the test with SK-OV-3 ovarian, in the test with 786-0 renal, in the test with U251 CNS, in the test on SF-539 CNS and in the test with HCC-2998 colon was greater than 100 µM each time. The TGI in the test on UO-31 renal, in the test with MCF7 breast, in the test on SK-MEL-2 melanoma and in the test with CAKI-1 renal was greater than 100 µM each time.
`COC1C(O)=C2C(=O)OC(C)(O)/C=C/C=C\C=C/C=C/C(c3ccccc3)NC(=O)/C=C/C=C/C=C/C=C/C2(C)C1O` (stereo unspecified): the GI50 in the test on NCI/ADR-RES ovarian is 14.2 nM; in the test with SF-539 CNS, 30.7 nM; in the test with UO-31 renal, 25.2 nM; in the test with SK-MEL-2 melanoma it was 92.9 nM. In addition, the TGI was 0.0535 µM and 0.206 µM in the test on NCI/ADR-RES ovarian; 0.134 µM in the test on SK-OV-3 ovarian; 0.0234 µM and 0.0419 µM in the test with 786-0 renal; 0.0382 µM with U251 CNS; 0.112 µM and 0.165 µM with SF-539 CNS; 0.146 µM and 0.048 µM with HCC-2998 colon. Also, the TGI was 0.0846 µM and 0.175 µM with UO-31 renal; 0.0273 µM and 0.169 µM in the test on MCF7 breast; 0.235 µM and 0.318 µM in the test with SK-MEL-2 melanoma; 0.125 µM and 0.0222 µM in the test on CAKI-1 renal.
In the case of `CN(C)c1ccc(C(c2ccc(N(C)C)cc2)c2ccc([N+](=O)[O-])cc2)cc1`, the TGI in the test on NCI/ADR-RES ovarian, in the test with SK-OV-3 ovarian, with 786-0 renal, in the test with U251 CNS, with SF-539 CNS and with HCC-2998 colon was greater than 100 µM each time. Besides, the TGI with UO-31 renal, in the test on MCF7 breast, in the test on SK-MEL-2 melanoma and in the test on CAKI-1 renal was greater than 100 µM throughout.
In the case of `CN(C)c1ccc(/C=C2\N=C(c3ccccc3)N(c3nc4c(Cl)cc(Cl)cc4s3)C2=O)cc1`, the TGI in the test with NCI/ADR-RES ovarian, in the test with SK-OV-3 ovarian, in the test on 786-0 renal, in the test on U251 CNS, in the test on SF-539 CNS and in the test with HCC-2998 colon was greater than 100 µM each time. In addition, the TGI with UO-31 renal, with MCF7 breast, in the test on SK-MEL-2 melanoma and with CAKI-1 renal was greater than 100 µM each time.
Regarding `OC1CN=C2c3ccccc3C(O)(c3ccc(Cl)cc3)N2C1` (stereo unspecified), the TGI in the test on NCI/ADR-RES ovarian was greater than 100 µM; in the test on SK-OV-3 ovarian it was greater than 100 µM; in the test on 786-0 renal, greater than 100 µM; in the test on U251 CNS, greater than 100 µM; in the test on SF-539 CNS, greater than 100 µM; in the test on HCC-2998 colon it was 35.5 µM. Further, the TGI with UO-31 renal, in the test on MCF7 breast, in the test on SK-MEL-2 melanoma and with CAKI-1 renal was greater than 100 µM each time.
Regarding `O=c1[nH]cnc2c1ncn2[C@H]1CO[C@@H](CO)[C@@H]1O`, the TGI in the test with NCI/ADR-RES ovarian, with SK-OV-3 ovarian, in the test on 786-0 renal, in the test with U251 CNS, in the test with SF-539 CNS and with HCC-2998 colon was greater than 100 µM in each case. Besides, the TGI in the test on UO-31 renal, in the test with MCF7 breast, with SK-MEL-2 melanoma and in the test with CAKI-1 renal was greater than 100 µM throughout.
Take `CC(=O)Oc1ccc2c(c1)CC[C@@H]1C2[C@@H](O[N+](=O)[O-])C[C@@]2(C)C1CC[C@@H]2O` (stereo partly specified): the total growth inhibition concentration (TGI) in the test on NCI/ADR-RES ovarian was 97.3 µM; with SK-OV-3 ovarian it was greater than 100 µM; in the test with 786-0 renal, greater than 100 µM; in the test with U251 CNS, greater than 100 µM; with SF-539 CNS, 72.6 µM; in the test with HCC-2998 colon, 46.2 µM. For the same compound, the TGI with UO-31 renal is greater than 100 µM; with MCF7 breast, greater than 90.3 µM; in the test with SK-MEL-2 melanoma, greater than 100 µM; in the test with CAKI-1 renal, greater than 100 µM.
Turning to `COc1cc2c(cc1OCCCC(=O)Nc1cc(C(=O)Nc3cc(C(=O)NCCCN(C)C)n(C)n3)n(C)n1)N=CC1CCCN1C2=O` (stereo unspecified), the TGI with NCI/ADR-RES ovarian is 57.3 µM; in the test with SK-OV-3 ovarian it was greater than 100 µM; in the test with 786-0 renal, 35.5 µM; in the test with U251 CNS, 39.5 µM; with SF-539 CNS, 44.1 µM; in the test on HCC-2998 colon it was 37.9 µM. In addition, the TGI with UO-31 renal came to 30.4 µM; in the test on MCF7 breast, 29.5 µM; with SK-MEL-2 melanoma it was 31.2 µM; in the test on CAKI-1 renal it was 31.2 µM.
As to `CN(C)CCCOC(=O)C(O)(Cc1ccccc1)C1CC1` (stereo unspecified), the TGI with NCI/ADR-RES ovarian, in the test on SK-OV-3 ovarian, in the test on 786-0 renal, in the test with U251 CNS, with SF-539 CNS and in the test on HCC-2998 colon was greater than 100 µM throughout. In addition, the TGI with MCF7 breast, in the test on SK-MEL-2 melanoma and in the test with CAKI-1 renal was greater than 100 µM throughout.
`CCOC(=O)/C(=C\c1ccc(CO)o1)P(=O)(OCC)OCC`: the TGI with NCI/ADR-RES ovarian was greater than 100 µM; with SK-OV-3 ovarian, greater than 100 µM; in the test on 786-0 renal, 45.3 µM; in the test with U251 CNS, greater than 100 µM; with SF-539 CNS, 40.3 µM; in the test on HCC-2998 colon, greater than 100 µM. For the same compound, the TGI with MCF7 breast is greater than 100 µM; in the test on SK-MEL-2 melanoma it was 92.2 µM; in the test on CAKI-1 renal, greater than 100 µM.
On to `CC(NCCS(=O)(=O)O)C(=O)O` (stereo unspecified), for which the TGI with NCI/ADR-RES ovarian, with SK-OV-3 ovarian, with U251 CNS, with SF-539 CNS, in the test on HCC-2998 colon and in the test with UO-31 renal was greater than 100 µM throughout. Besides, the TGI in the test with MCF7 breast, in the test with SK-MEL-2 melanoma and in the test with CAKI-1 renal was greater than 100 µM in each case.
